Test results taken from ChEMBL document CHEMBL5620394, “Synthesis of new antiproliferative 1,3,4-substituted-pyrrolo[3,2-c]quinoline derivatives, biological and in silico insights” (Eur J Med Chem, 2023).
Active and inactive are the calls of the source. No cut-off for these calls is given here.

Tests used:
[1] = system: HL-60; experiment: Antiproliferative activity against human HL-60 cells assessed as cell growth at 10 uM incubated for 48 hrs by sulforhodamine B assay relative to control; assay type: functional; settings: read-out: Activity
[2] = Antiproliferative activity against human LA-N-5 cells assessed as inhibition of cell growth incubated for 4 hrs by MTS assay; assay type: functional
[3] = system: NCI-H522; experiment: Antiproliferative activity against human NCI-H522 cells assessed as cell growth at 10 uM incubated for 48 hrs by sulforhodamine B assay relative to control; assay type: functional; settings: read-out: Activity
[4] = Antiproliferative activity against human 16HBE14o- cells assessed as inhibition of cell growth incubated for 4 hrs by MTS assay; assay type: toxicity, cell-based; settings: read-out: IG50
[5] = system: LA-N-5; experiment: Antiproliferative activity against human LA-N-5 cells assessed as reduction in cell growth at 10 to 100 uM incubated for 4 hrs by MTS assay; assay type: functional, cell-based; settings: dose 10-100 µM
[6] = system: RPMI-8226; experiment: Antiproliferative activity against human RPMI-8226 cells assessed as cell growth at 10 uM incubated for 48 hrs by sulforhodamine B assay relative to control; assay type: functional; settings: read-out: Activity
[7] = system: UACC-257; experiment: Antiproliferative activity against human UACC-257 cells assessed as cell growth at 10 uM incubated for 48 hrs by sulforhodamine B assay relative to control; assay type: functional; settings: read-out: Activity
[8] = system: SNB-75; experiment: Antiproliferative activity against human SNB-75 cells assessed as cell growth at 10 uM incubated for 48 hrs by sulforhodamine B assay relative to control; assay type: functional; settings: read-out: Activity
[9] = system: CCRF-CEM; experiment: Antiproliferative activity against human CCRF-CEM cells assessed as cell growth at 10 uM incubated for 48 hrs by sulforhodamine B assay relative to control; assay type: functional; settings: read-out: Activity
[10] = system: MCF7; experiment: Antiproliferative activity against human MCF7 cells assessed as inhibition of cell growth incubated for 4 hrs by MTS assay; assay type: functional
[11] = system: NCI-H226; experiment: Antiproliferative activity against human NCI-H226 cells assessed as cell growth at 10 uM incubated for 48 hrs by sulforhodamine B assay relative to control; assay type: functional; settings: read-out: Activity
[12] = system: CAKI-1; experiment: Antiproliferative activity against human CAKI-1 cells assessed as cell growth at 10 uM incubated for 48 hrs by sulforhodamine B assay relative to control; assay type: functional; settings: read-out: Activity
[13] = system: SR; experiment: Antiproliferative activity against human SR cells assessed as cell growth at 10 uM incubated for 48 hrs by sulforhodamine B assay relative to control; assay type: functional; settings: read-out: Activity
[14] = system: MOLT-4; experiment: Antiproliferative activity against human MOLT-4 cells assessed as cell growth at 10 uM incubated for 48 hrs by sulforhodamine B assay relative to control; assay type: functional; settings: read-out: Activity
[15] = system: LA-N-5; experiment: Antiproliferative activity against human LA-N-5 cells assessed as inhibition of cell growth at 10 uM incubated for 4 hrs by MTS assay; assay type: functional, cell-based
[16] = system: HT-29; experiment: Antiproliferative activity against human HT-29 cells assessed as cell growth at 10 uM incubated for 48 hrs by sulforhodamine B assay relative to control; assay type: functional; settings: read-out: Activity
[17] = system: K562; experiment: Antiproliferative activity against human K562 cells assessed as cell growth at 10 uM incubated for 48 hrs by sulforhodamine B assay relative to control; assay type: functional; settings: read-out: Activity
[18] = system: UO-31; experiment: Antiproliferative activity against human UO-31 cells assessed as cell growth at 10 uM incubated for 48 hrs by sulforhodamine B assay relative to control; assay type: functional; settings: read-out: Activity
[19] = system: HeLa; experiment: Antiproliferative activity against human HeLa cells assessed as inhibition of cell growth at >50 uM incubated for 4 hrs by MTS assay; assay type: functional, cell-based
[20] = system: UACC-62; experiment: Antiproliferative activity against human UACC-62 cells assessed as cell growth at 10 uM incubated for 48 hrs by sulforhodamine B assay relative to control; assay type: functional; settings: read-out: Activity
[21] = system: MCF7; experiment: Antiproliferative activity against human MCF7 cells assessed as cell growth at 10 uM incubated for 48 hrs by sulforhodamine B assay relative to control; assay type: functional; settings: read-out: Activity
[22] = system: NCI-H292; experiment: Antiproliferative activity against human NCI-H292 cells assessed as inhibition of cell growth at >50 uM incubated for 4 hrs by MTS assay; assay type: functional, cell-based
[23] = system: MDA-MB-231; experiment: Antiproliferative activity against human MDA-MB-231 cells assessed as cell growth at 10 uM incubated for 48 hrs by sulforhodamine B assay relative to control; assay type: functional; settings: read-out: Activity
[24] = system: PC-3; experiment: Antiproliferative activity against human PC-3 cells assessed as cell growth at 10 uM incubated for 48 hrs by sulforhodamine B assay relative to control; assay type: functional; settings: read-out: Activity
[25] = system: 786-0; experiment: Antiproliferative activity against human 786-0 cells assessed as cell growth at 10 uM incubated for 48 hrs by sulforhodamine B assay relative to control; assay type: functional; settings: read-out: Activity
[26] = system: MCF7; experiment: Antiproliferative activity against human MCF7 cells assessed as inhibition of cell growth at >50 uM incubated for 4 hrs by MTS assay; assay type: functional, cell-based
[27] = system: T47D; experiment: Antiproliferative activity against human T47D cells assessed as cell growth at 10 uM incubated for 48 hrs by sulforhodamine B assay relative to control; assay type: functional; settings: read-out: Activity
[28] = system: HeLa; experiment: Antiproliferative activity against human HeLa cells assessed as inhibition of cell growth incubated for 4 hrs by MTS assay; assay type: functional

CCn1c(C)c(C(C)=O)c2c(-c3ccccc3)nc3ccccc3c21
growth at 10 µM [1]: 100% | IG50 [2]: 1 µM | growth at 10 µM [3]: 92.6% | GI50 at 4 h [4]: 10 µM | Activity [5]: Active | growth at 10 µM [6]: 79.6% | growth at 10 µM [7]: 93.3% | growth at 10 µM [8]: 85.1% | growth at 10 µM [9]: 88.5% | IG50 [10]: 10 µM | growth at 10 µM [11]: 68.3% | growth at 10 µM [12]: 93.8% | growth at 10 µM [13]: 91.7% | growth at 10 µM [14]: 95.2% | Activity [15]: Active | growth at 10 µM [16]: 108% | growth at 10 µM [17]: 99.2% | growth at 10 µM [18]: 82.5% | Activity [19]: Active | growth at 10 µM [20]: 88.9% | growth at 10 µM [21]: 93.6% | Activity [22]: Active | growth at 10 µM [23]: 91.1% | growth at 10 µM [24]: 80.5% | growth at 10 µM [25]: 98.8% | Activity [26]: Active | growth at 10 µM [27]: 87% | IG50 [28]: 10 µM
